{"source": "PubChem BioAssay (NCI)", "note": "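Protocol summary: plate cells (96-well), add compound at 5 concentrations, incubate 48 h, interpolate endpoints linearly. At the TGI there is no net growth.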 Where a SMILES comes first, the peptide text is derived from it. Bridges are numbered along the chain shown (N, C = ends). [ ]: non-standard residue; d: D form. The star is where a group is joined. ξ: configuration not given here. PhAc = O=C(Cc1ccccc1)*; ξP = O=C(O)C1CCCN1"}
{"system": "SK-MEL-2 melanoma", "experiment": "growth of human tumour cells (NCI), 48 h", "units": {"TGI": "µM"}}
{"smiles": "Cc1ccc2c(=O)cc(-c3ccc(Cl)cc3)[nH]c2n1", "TGI": "> 100"}
{"smiles": "CCOP(=O)(OCC)/C(=C\\n1c(=S)[nH]c2cc(C)ccc21)C(=O)OC", "TGI": "> 100"}
{"smiles": "O=C1C2=Cc3ccccc3OC2(O)Oc2cc(O)cc(O)c21", "note": "(stereo unspecified)", "TGI": "> 100"}
{"smiles": "COc1ccc(-c2cc(-c3ccccc3)nc(N)c2-c2ccc3ccccc3c2)cc1", "TGI": 3.88}
{"smiles": "O=C(Cc1ccccc1)N[C@@H]1COC(=O)C2CCCN2C(=O)[C@@H]2CCCN2C1=O", "note": "(stereo partly specified) (PhAc-[dS]-Pro-[ξP]; ester 1-C)", "TGI": "> 100"}
{"system": "SK-MEL-28 melanoma", "experiment": "growth of human tumour cells (NCI), 48 h", "units": {"TGI": "µM"}}
{"smiles": "Cc1ccc2c(=O)cc(-c3ccc(Cl)cc3)[nH]c2n1", "TGI": "> 100"}
{"smiles": "CCOP(=O)(OCC)/C(=C\\n1c(=S)[nH]c2cc(C)ccc21)C(=O)OC", "TGI": "> 100"}
{"smiles": "O=C1C2=Cc3ccccc3OC2(O)Oc2cc(O)cc(O)c21", "note": "(stereo unspecified)", "TGI": "> 100"}
{"smiles": "O=C(Cc1ccccc1)N[C@@H]1COC(=O)C2CCCN2C(=O)[C@@H]2CCCN2C1=O", "note": "(stereo partly specified) (PhAc-[dS]-Pro-[ξP]; ester 1-C)", "TGI": "> 100"}
{"system": "SK-MEL-5 melanoma", "experiment": "growth of human tumour cells (NCI), 48 h", "units": {"TGI": "µM"}}
{"smiles": "Cc1ccc2c(=O)cc(-c3ccc(Cl)cc3)[nH]c2n1", "TGI": 14.6}
{"smiles": "CCOP(=O)(OCC)/C(=C\\n1c(=S)[nH]c2cc(C)ccc21)C(=O)OC", "TGI": "> 100"}
{"smiles": "O=C1C2=Cc3ccccc3OC2(O)Oc2cc(O)cc(O)c21", "note": "(stereo unspecified)", "TGI": "> 100"}
{"smiles": "COc1ccc(-c2cc(-c3ccccc3)nc(N)c2-c2ccc3ccccc3c2)cc1", "TGI": 3.27}
{"smiles": "O=C(Cc1ccccc1)N[C@@H]1COC(=O)C2CCCN2C(=O)[C@@H]2CCCN2C1=O", "note": "(stereo partly specified) (PhAc-[dS]-Pro-[ξP]; ester 1-C)", "TGI": "> 100"}
{"system": "SK-OV-3 ovarian", "experiment": "growth of human tumour cells (NCI), 48 h", "units": {"TGI": "µM"}}
{"smiles": "Cc1ccc2c(=O)cc(-c3ccc(Cl)cc3)[nH]c2n1", "TGI": "> 100"}
{"smiles": "CCOP(=O)(OCC)/C(=C\\n1c(=S)[nH]c2cc(C)ccc21)C(=O)OC", "TGI": "> 100"}
{"smiles": "O=C1C2=Cc3ccccc3OC2(O)Oc2cc(O)cc(O)c21", "note": "(stereo unspecified)", "TGI": "> 100"}
{"smiles": "COc1ccc(-c2cc(-c3ccccc3)nc(N)c2-c2ccc3ccccc3c2)cc1", "TGI": 17.4}
{"smiles": "O=C(Cc1ccccc1)N[C@@H]1COC(=O)C2CCCN2C(=O)[C@@H]2CCCN2C1=O", "note": "(stereo partly specified) (PhAc-[dS]-Pro-[ξP]; ester 1-C)", "TGI": "> 100"}
{"system": "SN12C renal", "experiment": "growth of human tumour cells (NCI), 48 h", "units": {"TGI": "µM"}}
{"smiles": "Cc1ccc2c(=O)cc(-c3ccc(Cl)cc3)[nH]c2n1", "TGI": "> 94.8"}
{"smiles": "CCOP(=O)(OCC)/C(=C\\n1c(=S)[nH]c2cc(C)ccc21)C(=O)OC", "TGI": "> 100"}
{"smiles": "O=C1C2=Cc3ccccc3OC2(O)Oc2cc(O)cc(O)c21", "note": "(stereo unspecified)", "TGI": "> 100"}
{"smiles": "COc1ccc(-c2cc(-c3ccccc3)nc(N)c2-c2ccc3ccccc3c2)cc1", "TGI": 3.43}
{"smiles": "O=C(Cc1ccccc1)N[C@@H]1COC(=O)C2CCCN2C(=O)[C@@H]2CCCN2C1=O", "note": "(stereo partly specified) (PhAc-[dS]-Pro-[ξP]; ester 1-C)", "TGI": "> 100"}
{"system": "SNB-19 CNS", "experiment": "growth of human tumour cells (NCI), 48 h", "units": {"TGI": "µM"}}
{"smiles": "Cc1ccc2c(=O)cc(-c3ccc(Cl)cc3)[nH]c2n1", "TGI": "> 100"}
{"smiles": "CCOP(=O)(OCC)/C(=C\\n1c(=S)[nH]c2cc(C)ccc21)C(=O)OC", "TGI": "> 100"}
{"smiles": "COc1ccc(-c2cc(-c3ccccc3)nc(N)c2-c2ccc3ccccc3c2)cc1", "TGI": 2.57}
{"smiles": "O=C(Cc1ccccc1)N[C@@H]1COC(=O)C2CCCN2C(=O)[C@@H]2CCCN2C1=O", "note": "(stereo partly specified) (PhAc-[dS]-Pro-[ξP]; ester 1-C)", "TGI": "> 100"}
{"system": "SNB-75 CNS", "experiment": "growth of human tumour cells (NCI), 48 h", "units": {"TGI": "µM"}}
{"smiles": "Cc1ccc2c(=O)cc(-c3ccc(Cl)cc3)[nH]c2n1", "TGI": "> 27.9"}
{"smiles": "CCOP(=O)(OCC)/C(=C\\n1c(=S)[nH]c2cc(C)ccc21)C(=O)OC", "TGI": "> 100"}
{"smiles": "O=C1C2=Cc3ccccc3OC2(O)Oc2cc(O)cc(O)c21", "note": "(stereo unspecified)", "TGI": "> 100"}
{"smiles": "COc1ccc(-c2cc(-c3ccccc3)nc(N)c2-c2ccc3ccccc3c2)cc1", "TGI": 5}
{"smiles": "O=C(Cc1ccccc1)N[C@@H]1COC(=O)C2CCCN2C(=O)[C@@H]2CCCN2C1=O", "note": "(stereo partly specified) (PhAc-[dS]-Pro-[ξP]; ester 1-C)", "TGI": 4.79}
{"system": "SR leukemia", "experiment": "growth of human tumour cells (NCI), 48 h", "units": {"TGI": "µM"}}
{"smiles": "Cc1ccc2c(=O)cc(-c3ccc(Cl)cc3)[nH]c2n1", "TGI": "> 100"}
{"smiles": "COc1ccc(-c2cc(-c3ccccc3)nc(N)c2-c2ccc3ccccc3c2)cc1", "TGI": 7.31}
{"smiles": "O=C(Cc1ccccc1)N[C@@H]1COC(=O)C2CCCN2C(=O)[C@@H]2CCCN2C1=O", "note": "(stereo partly specified) (PhAc-[dS]-Pro-[ξP]; ester 1-C)", "TGI": "> 100"}
{"system": "SW-620 colon", "experiment": "growth of human tumour cells (NCI), 48 h", "units": {"TGI": "µM"}}
{"smiles": "Cc1ccc2c(=O)cc(-c3ccc(Cl)cc3)[nH]c2n1", "TGI": "> 100"}
{"smiles": "CCOP(=O)(OCC)/C(=C\\n1c(=S)[nH]c2cc(C)ccc21)C(=O)OC", "TGI": "> 100"}
{"smiles": "O=C1C2=Cc3ccccc3OC2(O)Oc2cc(O)cc(O)c21", "note": "(stereo unspecified)", "TGI": "> 100"}
{"smiles": "O=C(Cc1ccccc1)N[C@@H]1COC(=O)C2CCCN2C(=O)[C@@H]2CCCN2C1=O", "note": "(stereo partly specified) (PhAc-[dS]-Pro-[ξP]; ester 1-C)", "TGI": "> 100"}
{"system": "T-47D breast", "experiment": "growth of human tumour cells (NCI), 48 h", "units": {"TGI": "µM"}}
{"smiles": "Cc1ccc2c(=O)cc(-c3ccc(Cl)cc3)[nH]c2n1", "TGI": 26.3}
{"smiles": "CCOP(=O)(OCC)/C(=C\\n1c(=S)[nH]c2cc(C)ccc21)C(=O)OC", "TGI": "> 100"}
{"smiles": "O=C1C2=Cc3ccccc3OC2(O)Oc2cc(O)cc(O)c21", "note": "(stereo unspecified)", "TGI": "> 100"}
{"smiles": "COc1ccc(-c2cc(-c3ccccc3)nc(N)c2-c2ccc3ccccc3c2)cc1", "TGI": 3.38}
{"smiles": "O=C(Cc1ccccc1)N[C@@H]1COC(=O)C2CCCN2C(=O)[C@@H]2CCCN2C1=O", "note": "(stereo partly specified) (PhAc-[dS]-Pro-[ξP]; ester 1-C)", "TGI": "> 100"}
{"system": "TK-10 renal", "experiment": "growth of human tumour cells (NCI), 48 h", "units": {"TGI": "µM"}}
{"smiles": "Cc1ccc2c(=O)cc(-c3ccc(Cl)cc3)[nH]c2n1", "TGI": "> 100"}
{"smiles": "CCOP(=O)(OCC)/C(=C\\n1c(=S)[nH]c2cc(C)ccc21)C(=O)OC", "TGI": "> 100"}
{"smiles": "O=C1C2=Cc3ccccc3OC2(O)Oc2cc(O)cc(O)c21", "note": "(stereo unspecified)", "TGI": "> 100"}
{"smiles": "COc1ccc(-c2cc(-c3ccccc3)nc(N)c2-c2ccc3ccccc3c2)cc1", "TGI": 11.6}
{"smiles": "O=C(Cc1ccccc1)N[C@@H]1COC(=O)C2CCCN2C(=O)[C@@H]2CCCN2C1=O", "note": "(stereo partly specified) (PhAc-[dS]-Pro-[ξP]; ester 1-C)", "TGI": "> 100"}
{"system": "U251 CNS", "experiment": "growth of human tumour cells (NCI), 48 h", "units": {"TGI": "µM"}}
{"smiles": "Cc1ccc2c(=O)cc(-c3ccc(Cl)cc3)[nH]c2n1", "TGI": "> 59.9"}
{"smiles": "CCOP(=O)(OCC)/C(=C\\n1c(=S)[nH]c2cc(C)ccc21)C(=O)OC", "TGI": "> 100"}
{"smiles": "O=C1C2=Cc3ccccc3OC2(O)Oc2cc(O)cc(O)c21", "note": "(stereo unspecified)", "TGI": "> 100"}
{"system": "UACC-257 melanoma", "experiment": "growth of human tumour cells (NCI), 48 h", "units": {"TGI": "µM"}}
{"smiles": "Cc1ccc2c(=O)cc(-c3ccc(Cl)cc3)[nH]c2n1", "TGI": "> 67.7"}
{"smiles": "CCOP(=O)(OCC)/C(=C\\n1c(=S)[nH]c2cc(C)ccc21)C(=O)OC", "TGI": "> 100"}
{"smiles": "O=C1C2=Cc3ccccc3OC2(O)Oc2cc(O)cc(O)c21", "note": "(stereo unspecified)", "TGI": "> 100"}
{"smiles": "COc1ccc(-c2cc(-c3ccccc3)nc(N)c2-c2ccc3ccccc3c2)cc1", "TGI": 3.52}
{"smiles": "O=C(Cc1ccccc1)N[C@@H]1COC(=O)C2CCCN2C(=O)[C@@H]2CCCN2C1=O", "note": "(stereo partly specified) (PhAc-[dS]-Pro-[ξP]; ester 1-C)", "TGI": "> 100"}
{"system": "UACC-62 melanoma", "experiment": "growth of human tumour cells (NCI), 48 h", "units": {"TGI": "µM"}}
{"smiles": "Cc1ccc2c(=O)cc(-c3ccc(Cl)cc3)[nH]c2n1", "TGI": "> 100"}
{"smiles": "CCOP(=O)(OCC)/C(=C\\n1c(=S)[nH]c2cc(C)ccc21)C(=O)OC", "TGI": "> 100"}
{"smiles": "O=C1C2=Cc3ccccc3OC2(O)Oc2cc(O)cc(O)c21", "note": "(stereo unspecified)", "TGI": "> 100"}
{"smiles": "COc1ccc(-c2cc(-c3ccccc3)nc(N)c2-c2ccc3ccccc3c2)cc1", "TGI": 2.96}
{"smiles": "O=C(Cc1ccccc1)N[C@@H]1COC(=O)C2CCCN2C(=O)[C@@H]2CCCN2C1=O", "note": "(stereo partly specified) (PhAc-[dS]-Pro-[ξP]; ester 1-C)", "TGI": "> 100"}
{"system": "UO-31 renal", "experiment": "growth of human tumour cells (NCI), 48 h", "units": {"TGI": "µM"}}
{"smiles": "Cc1ccc2c(=O)cc(-c3ccc(Cl)cc3)[nH]c2n1", "TGI": "> 66.8"}
{"smiles": "CCOP(=O)(OCC)/C(=C\\n1c(=S)[nH]c2cc(C)ccc21)C(=O)OC", "TGI": "> 100"}
{"smiles": "COc1ccc(-c2cc(-c3ccccc3)nc(N)c2-c2ccc3ccccc3c2)cc1", "TGI": 5.13}
